# Assay results published in article PMC3059404 (Bioconjugate chemistry, 2011).
# Tested on: MDA-MB-435 tumor-bearing mice
# Experiment: Small animal PET, organ uptake in orthotopic MDA-MB-435 tumor-bearing mice
# Format: in vivo, athymic nude mice
# Conditions: co-injection with excess (0.5 μmol, 300 μg) c(RGDfk), 0.5 h
substance,measurement,value
4-^18F-fluoro-3-trifluoromethylbenzoyl-E[c(RGDfk)2] [^18F-4],reduction of tumor uptake by blocking,82%
